Laboratory results from ChEMBL document CHEMBL1129152, “Synthesis of constrained thiorphan analogs as inhibitors of neutral endopeptidase” (Bioorg Med Chem Lett, 1996).

target: T1, Neprilysin (Rattus norvegicus, UniProt P07861); test: Inhibition of neutral endopeptidase (NEP).
T1 sequence (P07861 whole entry): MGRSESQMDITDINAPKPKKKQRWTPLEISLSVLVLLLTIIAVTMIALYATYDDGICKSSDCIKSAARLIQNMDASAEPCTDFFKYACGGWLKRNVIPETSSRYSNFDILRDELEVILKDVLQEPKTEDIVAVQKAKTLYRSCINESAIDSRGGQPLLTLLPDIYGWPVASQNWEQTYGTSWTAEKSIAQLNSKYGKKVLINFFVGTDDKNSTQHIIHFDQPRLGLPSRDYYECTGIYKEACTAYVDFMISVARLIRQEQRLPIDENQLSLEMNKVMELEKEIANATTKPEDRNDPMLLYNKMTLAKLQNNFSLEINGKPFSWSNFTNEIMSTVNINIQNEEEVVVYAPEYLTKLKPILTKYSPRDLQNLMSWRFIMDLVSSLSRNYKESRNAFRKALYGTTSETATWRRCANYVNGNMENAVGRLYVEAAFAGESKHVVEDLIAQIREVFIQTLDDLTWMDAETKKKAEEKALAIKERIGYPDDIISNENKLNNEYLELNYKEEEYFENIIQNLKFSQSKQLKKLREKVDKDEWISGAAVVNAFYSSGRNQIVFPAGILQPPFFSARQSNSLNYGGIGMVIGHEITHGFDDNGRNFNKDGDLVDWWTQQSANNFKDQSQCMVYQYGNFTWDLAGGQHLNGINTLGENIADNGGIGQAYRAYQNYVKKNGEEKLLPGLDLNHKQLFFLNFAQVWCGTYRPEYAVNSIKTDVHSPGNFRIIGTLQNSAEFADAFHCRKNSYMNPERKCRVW

Ki	SMILES
0.4 nM	O=C(CNC(=O)C1(CS)CCc2ccccc2C1)OCc1ccccc1 (centres undefined)
2 nM	CC(C)[C@H](NC(=O)C1(CS)CCc2ccccc2C1)C(=O)OCc1ccccc1 (some centres undefined)
0.3 nM	C[C@H](NC(=O)C1(CS)CCc2ccccc2C1)C(=O)OCc1ccccc1 (some centres undefined)
0.6 nM	O=C(O)C1CCC(NC(=O)C2(CS)CCc3ccccc3C2)CC1 (centres undefined)
14 nM	O=C(NCc1ccc2c(c1)OCO2)C1(CS)CCc2ccccc2C1 (centres undefined)
> 300 nM	O=C(O)[C@@H]1CCCC2c3ccccc3C[C@H](CS)C(=O)N21 (some centres undefined)
45 nM	O=C(O)[C@@H]1CCCC2c3ccccc3C[C@@H](CS)C(=O)N21 (some centres undefined)
0.5 nM	O=C(OCc1ccccc1)[C@H](Cc1ccc(O)cc1)NC(=O)C1(CS)CCc2ccccc2C1 (some centres undefined)
5 nM	O=C(CS)N[C@H]1Cc2ccccc2C2CCC[C@@H](C(=O)O)N2C1=O (some centres undefined)
0.6 nM	O=C(O)CCCCCCNC(=O)C1(CS)CCc2ccccc2C1 (centres undefined)
0.2 nM	COC(=O)CCNC(=O)C1(CS)CCc2ccccc2C1 (centres undefined)
7 nM	COC(=O)[C@H](CC(C)C)NC(=O)C1(CS)CCc2ccccc2C1 (some centres undefined)
10 nM	O=C(CNC(=O)C1(CS)Cc2ccccc2C1)OCc1ccccc1
4 nM	COC(=O)[C@H](Cc1ccccc1)NC(=O)C1(CS)CCc2ccccc2C1 (some centres undefined)
